One assay has as its system Compound E. Nature of the assay: Inhibition of contraction of guinea pig ileum induced by Compound E. As to conditions: Cavia porcellus. The format is cell-based.
The next assay has as its system natural SRS-A. Nature of the assay: Inhibition of contraction of guinea pig ileum induced by natural SRS-A. It is filed as cell-based. As to conditions: Cavia porcellus; read-out: IC50 against natural SRS-A. How it is done:
(§1) SRS-A was assayed utilizing the procedure described by Orange and Austen, J. Immunol. 10, 105 (1969) as follows: a 1.5 cm segment of ileum was removed from male guinea pigs weighing from 250 to 300 grams. The segment of ileum was suspended in a 10 ml organ bath containing Tyrodes solution. The ileum was attached to a strain gauge transducer and contractions were recorded on a strip chart recorder. The bath contained 10^-6 M atropine sulfate to block contractions which might be caused by acetylcholine and 10^-6 M pyrilamine maleate to block histamine-induced contractions. The bath was maintained at 37° C. and gassed with a mixture of 95% O2 and 5% CO2. The concentration of SRS-A in the filtrate obtained by challenging lung tissue with egg albumin was determined by comparing the contraction solicited by a given volume of the filtrate with the contraction elicited by […] of histamine (in the absence of pyrilamine maleate). One unit of SRS-A is equivalent to that quantity which will give the same contraction as this amount of histamine. […] After standardization, this SRS-A was stored in small aliquots at -80° C. for further use. […]
(§2) The assay was carried out as described in Example 23. […] The difference in the level of the contraction obtained in the absence and presence of varying concentrations of Compound I was determined. […]

A further assay relates to Compound B. Nature of the assay: Inhibition of contraction of guinea pig ileum induced by Compound B. The format is cell-based. The following applies: Compound B at its EC50, n=1, extrapolated from graph. How it is done: as §1, §2
The next assay concerns guinea pig ileum. Put plainly: SRS-A activity: contraction of isolated guinea pig ileum (bioassay). The format is cell-based. The following applies: read-out: EC50 (concentration giving 50% of the maximal contraction of the ileum produced by natural SRS-A), 37° C, atropine sulfate 10^-6 M and pyrilamine maleate 10^-6 M in bath, average ± S.E., n = 2-5 ileums. The method, then: SRS-A was assayed utilizing the procedure described by Orange and Austen, J. Immunol. […] The segment of ileum was suspended in a 10 ml organ bath containing Tyrodes solution. The ileum was attached to a strain gauge transducer and contractions were recorded on a strip chart recorder. The bath contained 10^-6 M atropine sulfate to block contractions which might be caused by acetylcholine and 10^-6 M pyrilamine maleate to block histamine-induced contractions. The bath was maintained at 37° C. and gassed with a mixture of 95% O2 and 5% CO2. The concentration of SRS-A in the filtrate obtained by challenging lung tissue with egg albumin was determined by comparing the contraction solicited by a given volume of the filtrate with the contraction elicited by […] of histamine (in the absence of pyrilamine maleate). One unit of SRS-A is equivalent to that quantity which will give the same contraction as this amount of histamine. […] After standardization, this SRS-A was stored in small aliquots at -80° C. for further use.

The conditions of assay [1]: background, literature; cited from earlier work.

Structures can show the parent of a compound that is named as a salt. Where two headings read alike, the source gives them in different places.

The term IC50 denotes the concentration that inhibits the measured activity by half. With `CCCCCC#CCC#C/C=C/C=C/[C@H]1O[C@@H]1CCCC(=O)OC` (relative stereo) [(R,S) (All E)-3-(1,3-tetradecadien-5,8-diynyl)-trans-oxiranebutanoic acid methyl ester], the IC50 in the assay with Compound E (Example 26, SRS-A active compound used: Compound E, n=1, read-out: IC50 (antagonist against synthetic Compound E)) worked out at 10 µM.
In the case of `CCCc1c(OCC(O)COc2ccc3c(=O)cc(C(=O)O)oc3c2CCC)ccc(C(C)=O)c1O` (centres unmarked) [Compound I, 7-[3-(4-acetyl-3-hydroxy-2-propylphenoxy)-2-hydroxypropoxy]-4-oxo-8-propyl-4H-benzopyran-2-carboxylic acid], the IC50 is 0.04 µM with Compound E (read-out: IC50 against Compound E); 0.037 µM with natural SRS-A; 0.035 µM in the assay with Compound B (Cavia porcellus, read-out: IC50 against Compound B, 3 min preincubation); 0.04 µM with Compound B (read-out: IC50 against Compound B, 3 min preincubation).
For the molecule `CCCCCC#CCC#C/C=C/C=C/[C@@H](SC[C@H](N)C(=O)O)[C@@H](O)CCCC(=O)O` [D, (5S,6R) (E,E)-S-(5-hydroxy-1-hydroxy-1-oxoeicosa-7,9-dien-11,14-diyn-6-yl)-L-cysteine mono ammonium salt], the EC50 in the assay with guinea pig ileum (Cavia porcellus) stood at 1.1 µM.
For `CCCCCC=CCC=CC=CC=CC(SCC(N)C(=O)O)C(O)CCCC(=O)O` (centres unmarked) [compound obtained by Samuelsson], the SRS-A activity result in assay [1] was “found to have SRS-A activity”.
“(5R,6S) (E,E,Z,Z)-S-(5-hydroxy-1-methoxy-1-oxoeicosa-7,9,11,14-tetraen-6-yl)-L-cysteine mono ammonium salt”: the EC50 in the assay with guinea pig ileum came out at 0.028 µM.

These data come from patent publication US4311645A, “Synthesis of SRS-active compounds” (Hoffmann-La Roche Inc., priority 1980, dated 1982).
